Test results published in patent US6479553B1, “Use of certain affinity NMDA antagonists as antidepressants” (AstraZeneca AB, priority 1999, dated 2002).
“Also recorded” adds a separate entry of the source. Marks after values point to notes of the source that are not given here.

How the values were obtained:
Assay type in all cases: in vivo
[1] = tested on: male NMRI mice; assay: Forced swim test in mice; conditions: for Average Immobility Time: forced swim test, 60 minutes pre-test, last four minutes of test
[2] = tested on: male NMRI mice; assay: Small tube test in mice; conditions: for Average Immobility Time: small tube test, 60 minutes pre-test, last four minutes of test; for Effect on immobility in the small tube test, in words: summary of Table 2, check for non-specific stimulant activity
[3] = tested on: rat; assay: Test for possible sedative activity (motor activity) in the rat; conditions: 200 mg/kg, up to fifty times the oral effective dose in the MES test
Protocol: (S)-1-Phenyl-2-(2-pyridyl)ethanamine was further tested for possible sedative activity in the rat. At doses up to fifty times the oral effective dose in the maximum electroshock seizure test (MES), (S)-1-phenyl-2-(2-pyridyl)ethanamine induced no changes in four parameters of motor activity, namely, distance travelled, ambulatory time, stereotyped time and resting time. The dose administered was 200 mg/kg.

Row | Compound | Average Immobility Time ([1]; dose 10 mg/kg i.p.) | Effect in the forced swim test (reduction in immobility time), in words ([1]; summary of Table 1) | Average Immobility Time ([2]; dose 10 mg/kg i.p.) [s] | Effect on immobility in the small tube test, in words [2] | Average Immobility Time ([1]; dose 1 mg/kg i.p.) [s] | Average Immobility Time ([1]; dose 3 mg/kg i.p.) | Effect in the forced swim test (reduction in immobility time), in words ([1]; summary of Table 1, dihydrochloride) | Average Immobility Time ([2]; dose 1 mg/kg i.p.) [s] | Average Immobility Time ([2]; dose 3 mg/kg i.p.) | Changes in four parameters of motor activity (distance travelled, ambulatory time, stereotyped time and resting time) [3] | Average Immobility Time ([1]; dose 0.01 mg/kg i.p.) [s] | Average Immobility Time ([1]; dose 0.03 mg/kg i.p.) [s] | Average Immobility Time ([1]; dose 0.1 mg/kg i.p.) | Average Immobility Time ([1]; dose 0.3 mg/kg i.p.) | Average Immobility Time ([2]; dose 0.01 mg/kg i.p.) [s] | Average Immobility Time ([2]; dose 0.03 mg/kg i.p.) [s] | Average Immobility Time ([2]; dose 0.1 mg/kg i.p.) | Average Immobility Time ([2]; dose 0.3 mg/kg i.p.)
1 | CN(C)CCCN1c2ccccc2CCc2ccccc21 [Imipramine, imipramine] | 143* seconds | very similar result to that observed with (S)-1-phenyl-2-(2-pyridyl)ethanamine | 202 | little effect | – | – | – | – | – | – | – | – | – | – | – | – | – | –
2 | Cl.Cl.N[C@@H](Cc1ccccn1)c1ccccc1 [(S)-1-phenyl-2-(2-pyridyl)ethanamine dihydrochloride] | 145* seconds | – | 201 | little effect | 158 | 120* seconds | positive effects; also recorded: have activity in the mouse forced swim test | 192 | 210* seconds | no changes | – | – | – | – | – | – | – | –
3 | (+)-MK 801 | – | positive effects | – | reduced immobility | – | – | – | – | – | – | 155 | 164 | 80* seconds | 10* seconds | 190 | 173 | 128* seconds | 84* seconds
